# Data published in US9260485B2 (priority 2009, dated 2016).
# Square brackets hold non-standard residues; d marks the D form. Peptide text beside a SMILES is read from it. Hica(2S) = CC(C)C[C@H](O)C(=O)O; NMeL = CN[C@@H](CC(C)C)C(=O)O
# Tests used:
# [1] = tested on: SK-OV-3 ovarian cancer cell line; experiment: In vitro cytotoxicity, SRB method; type: cell-based, Human; conditions: read-out: EC50 (concentration inhibiting cell growth in vitro by 50%); SK-OV-3
# Procedure: (§1) Known cyclic hexadepsipeptides (beauvericin, enniatin H, I, and MK1688) and the compounds of Chemical Formulas 1 and 2 were evaluated for in vitro cytotoxicity against various non-multidrug-resistant human cancer cell lines and multidrug-resistant cancer cell lines using the SRB method.
# (§2) Human non-small-cell lung cancer cell line (A549) ovarian cancer cell line (SK-OV-3), skin cancer cell line (SK-MEL-2), and uterine sarcoma cell line MES-SA and its multi-drug resistant subline (MES-SA/DX5) were purchased from the American Type Culture Collection (USA). Colorectal carcinoma cancer cell line (HCT-15) was provided by the National Cancer Institute (NCI). HCT15/CL02 cell lines were established from HCT15 cells by continuous and stepwise exposure of the cells to doxorubicin in the Korea Research Institute of Chemical Technology (Korea).
# [2] = tested on: MES-SA uterine sarcoma cell line; experiment: In vitro cytotoxicity, SRB method; type: cell-based, Human; conditions: read-out: EC50 (concentration inhibiting cell growth in vitro by 50%)
# Procedure: as §1, §2
# [3] = tested on: MES-SA/DX5 multi-drug resistant subline; experiment: In vitro cytotoxicity, SRB method; type: cell-based, Human; conditions: read-out: EC50 (concentration inhibiting cell growth in vitro by 50%); MES-SA/DX5
# Procedure: as §1, §2
# [4] = tested on: HCT15/CL02 cell line (doxorubicin-selected from HCT15); experiment: In vitro cytotoxicity, SRB method; type: cell-based, Human; conditions: read-out: EC50 (concentration inhibiting cell growth in vitro by 50%); HCT15/CL02
# Procedure: as §1, §2
# [5] = tested on: SK-MEL-2 skin cancer cell line; experiment: In vitro cytotoxicity, SRB method; type: cell-based, Human; conditions: read-out: EC50 (concentration inhibiting cell growth in vitro by 50%); SK-MEL-2
# Procedure: as §1, §2
# [6] = tested on: A549 non-small-cell lung cancer cell line; experiment: In vitro cytotoxicity, SRB method; type: cell-based, Human; conditions: read-out: EC50 (concentration inhibiting cell growth in vitro by 50%); A549
# Procedure: as §1, §2
# [7] = tested on: HCT15 colorectal carcinoma cancer cell line; experiment: In vitro cytotoxicity, SRB method; type: cell-based, Human; conditions: read-out: EC50 (concentration inhibiting cell growth in vitro by 50%); HCT15
# Procedure: as §1, §2
# [8] = tested on: NCI human tumor cell line screen; conditions: cited from earlier work
# [9] = tested on: HCT-116 colon carcinoma; conditions: cited from earlier work
Compound,EC50 [1] [nM],EC50 [2] [nM],EC50 [3] [nM],EC50 [4] [nM],EC50 [5] [nM],EC50 [6] [nM],EC50 [7] [nM],GI50 [8] [nM],in vitro IC50 [9] [µg/mL]
"CC[C@H](C)[C@H]1OC(=O)[C@H](C(C)C)N(C)C(=O)[C@@H](C(C)C)OC(=O)[C@H](C(C)C)N(C)C(=O)[C@@H]([C@@H](C)CC)OC(=O)[C@H](C(C)C)N(C)C1=O [EN I, enniatin I]",490 ± 30,3940 ± 30,4900 ± 270,5880 ± 210,530 ± 60,500 ± 40,5560 ± 220,–,–
"CCC(C)C[C@H]1OC(=O)[C@H](C(C)C)N(C)C(=O)[C@@H](CC(C)C)OC(=O)[C@H](C(C)C)N(C)C(=O)[C@@H](C(C)C)OC(=O)[C@H](C(C)C)N(C)C1=O (some centres unmarked) [EN MK1688, Enniatin MK1688]",460 ± 30,13600 ± 1050,13600 ± 790,16400 ± 840,630 ± 10,450 ± 40,14000 ± 540,–,–
CC(C)C[C@@H]1NC(=O)[C@H](Cc2ccccc2)NC(=O)[C@H](CC(C)C)N(C)C(=O)[C@H](C(C)C)NC(=O)[C@H](CC(C)C)OC1=O [N-Methylsansalvamide] (cyclo(FL[Hica(2S)]V[NMeL])),–,–,–,–,–,–,–,8300,–
CC(C)C[C@@H]1NC(=O)[C@H](C(C)C)NC(=O)[C@H](CC(C)C)OC(=O)[C@H](CC(C)C)NC(=O)[C@H](Cc2ccccc2)NC1=O [sansalvamide] (cyclo(FL[Hica(2S)]VL)),–,–,–,–,–,–,–,–,9.8
beauvericin,1390 ± 90,1290 ± 20,1340 ± 30,1660 ± 80,1470 ± 90,1430 ± 160,1530 ± 90,–,–
